Read-outs that look alike come from different tables or passages of the source.

IC50 data for 27 molecules are collected here from patent publication US9951077B2, “Aminopyridazinone compounds as protein kinase inhibitors” (ETERNITY BIOSCIENCE INC., priority 2014, dated 2018).

The target of one assay is Btk (Homo sapiens (Human), UniProt Q06187). As to the kind of experiment: Btk kinase assay (ADP-Glo). It is filed as biochemical. The conditions noted are these: ATP 1.2 μM, 60 minutes, room temperature; read-out: BTK enzyme IC50. The essentials: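 Recombinant human Btk (2 ng/μl) with poly GT peptide (0.3 μM), ATP (1.2 μM), MnCl2 (1.4 mM) and DTT (40 nM), 60 min at room temperature (22±1° C.). ADP formed was read by ADP-Glo luminescence after ATP depletion. IC50 from log concentration versus percent inhibition relative to DMSO vehicle.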
Btk, sequence (Q06187 whole entry): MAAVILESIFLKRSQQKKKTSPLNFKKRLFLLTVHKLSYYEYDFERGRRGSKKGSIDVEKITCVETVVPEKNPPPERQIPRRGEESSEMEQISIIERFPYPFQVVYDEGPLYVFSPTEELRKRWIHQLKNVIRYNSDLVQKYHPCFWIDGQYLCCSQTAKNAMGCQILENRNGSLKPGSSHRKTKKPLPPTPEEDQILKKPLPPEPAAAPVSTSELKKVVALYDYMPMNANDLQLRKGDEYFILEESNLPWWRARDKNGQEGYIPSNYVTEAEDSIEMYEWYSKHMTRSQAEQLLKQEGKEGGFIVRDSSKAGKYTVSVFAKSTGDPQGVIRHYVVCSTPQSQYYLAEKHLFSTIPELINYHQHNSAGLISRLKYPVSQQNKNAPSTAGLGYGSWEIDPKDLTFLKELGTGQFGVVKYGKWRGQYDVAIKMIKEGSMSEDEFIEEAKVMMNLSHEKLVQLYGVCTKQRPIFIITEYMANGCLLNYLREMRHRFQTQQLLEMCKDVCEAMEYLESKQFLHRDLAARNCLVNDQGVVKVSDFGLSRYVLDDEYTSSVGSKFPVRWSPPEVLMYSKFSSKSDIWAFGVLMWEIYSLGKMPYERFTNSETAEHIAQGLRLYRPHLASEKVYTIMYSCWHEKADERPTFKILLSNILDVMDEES
In general terms: ADP-Glo first removes unused ATP, then detects ADP through luciferase.

In the next assay the test system is TMD-8 cells. As to the kind of experiment: Cell proliferation assay (CellTiter-Glo), TMD-8 cells. It is filed as cell-based. The following applies: 5-day treatment, read-out: TMD8 cells growth IC50. How it is done:
TMD-8 and SU-DHL-1 cells were maintained at 37° C. in a humidified atmosphere with 5% CO2 in the recommended medium and serum concentrations. For cell proliferation assay, cells were seeded in 96-well pates at a density of 5,000 to 10,000 cells per well and cultured overnight at 37° C. in recommended medium supplemented with 5-10% FBS. On the next day, the test articles at various concentrations or vehicle control (0.5% DMSO) were added into cell culture. After 5-day treatment, the growth of cells was assayed by the CellTiter-Glo® Luminestceaent Cell Viability Assay (Promega). IC50 values were calculated using GraphPad Prism by plotting the logarithm of the concentration versus percent inhibition of cell growth as compared with the vehicle control.
A general note: Cellular ATP, detected with luciferase, serves as a proxy for viable cell number.

Take “4-amino-3-(4-phenoxyphenyl)-1-(1- prop-2-enoyl-3-piperidyl)-6H- pyrazolo[3,4-d]pyridazin-7-one [Example 2]”: the IC50 at Btk and with TMD-8 cells was at most 10 nM throughout.
Consider `CN(C/C=C/C(=O)N1CCC[C@@H](n2cc(-c3ccc(Oc4ccccc4)cc3)c3c(N)n[nH]c(=O)c32)C1)C1CCCCC1` [Example 32, 4-amino-1-[(3R)-1-[(E)-4-[cyclohexyl(methyl)amino]but-2-enoyl]-3-piperidyl]-3-(4-phenoxyphenyl)-6H-pyrrolo[2,3-d]pyridazin-7-one], for which the IC50 on Btk and in the assay with TMD-8 cells was 10 to 1000 nM in each case.
`CN1CCN(C/C=C/C(=O)N2CCC[C@@H](n3cc(-c4ccc(Oc5ccccc5)cc4)c4c(N)n[nH]c(=O)c43)C2)CC1` [Example 36, 4-amino-1-[(3R)-1-[(E)-4-(4-methylpiperazin-1-yl)but-2-enoyl]-3-piperidyl]-3-(4-phenoxyphenyl)-6H-pyrrolo[2,3-d]pyridazin-7-one]: the IC50 (in general, the concentration needed to halve the response being measured) was at most 10 nM on Btk and 10 to 1000 nM in the assay on TMD-8 cells.
As to `CN(C)C/C=C/C(=O)N1CCC(F)C(n2cc(-c3ccc(Oc4ccccc4)cc3)c3c(N)n[nH]c(=O)c32)C1` (centres unmarked) [Example 45, 4-amino-1-[1-[(E)-4-(dimethylamino)but-2-enoyl]-4-fluoro-3-piperidyl]-3-(4-phenoxyphenyl)-6H-pyrrolo[2,3-d]pyridazin-7-one], the IC50 on Btk was at most 10 nM; in the assay with TMD-8 cells (Homo sapiens, TMD8, 120 h), at most 10 nM.
In the case of `CN(C)C/C=C/C(=O)NC1CCC(n2cc(-c3ccc(Oc4ccccc4)cc3)c3c(N)n[nH]c(=O)c32)CC1` (centres unmarked) [Example 46, (E)-N-[4-[4-amino-7-oxo-3-(4-phenoxyphenyl)-6H-pyrrolo[2,3-d]pyridazin-1-yl]cyclohexyl]-4-(dimethylamino)but-2-enamide], the IC50 lay within 10 to 1000 nM at Btk and 10 to 1000 nM in the assay with TMD-8 cells (Homo sapiens, TMD8, 120 h).
`CN(C)C/C=C/C(=O)Nc1cccc(-n2cc(-c3ccc(Oc4ccccc4F)cc3)c3c(N)n[nH]c(=O)c32)c1` [Example 92, (E)-N-[3-[4-amino-3-[4-(2-fluorophenoxy)phenyl]-7-oxo-6H-pyrrolo[2,3-d]pyridazin-1-yl]phenyl]-4-(dimethylamino)but-2-enamide]: the IC50 on Btk was 10 to 1000 nM.
For the molecule `CC#CC(=O)N1CC[C@@H](n2cc(-c3ccc(Oc4c(F)cccc4Cl)cc3)c3c(N)n[nH]c(=O)c32)C1` [Example 94, (R)-4-amino-1-(1-(but-2-ynoyl)pyrrolidin-3-yl)-3-(4-(2-chloro-6-fluorophenoxy)phenyl)-1H-pyrrolo[2,3-d]pyridazin-7(6H)-one], the half-inhibitory concentration (IC50) at Btk lay within 10 to 1000 nM.
The same measure, in the same setting: then `CC#CC(=O)N1CC[C@@H](n2cc(-c3ccc(Oc4ccccc4F)cc3)c3c(N)n[nH]c(=O)c32)C1` [Example 95, (R)-4-amino-1-(1-(but-2-ynoyl)pyrrolidin-3-yl)-3-(4-(2-fluorophenoxy)phenyl)-1H-pyrrolo[2,3-d]pyridazin-7(6H)-one], with 10 to 1000 nM; and `CC#CC(=O)N1CC[C@@H](n2cc(-c3ccc(Oc4ccccc4Cl)cc3)c3c(N)n[nH]c(=O)c32)C1` [Example 96, (R)-4-amino-1-(1-(but-2-ynoyl)pyrrolidin-3-yl)-3-(4-(2-chlorophenoxy)phenyl)-1H-pyrrolo[2,3-d]pyridazin-7(6H)-one], with 10 to 1000 nM; and `CC#CC(=O)N1CC[C@@H](n2cc(-c3ccc(Oc4ccccc4)cc3)c3c(N)n[nH]c(=O)c32)C1` [Example 97, (R)-4-amino-1-(1-(but-2-ynoyl)pyrrolidin-3-yl)-3-(4-phenoxyphenyl)-1H-pyrrolo[2,3-d]pyridazin-7(6H)-one], with 10 to 1000 nM.
On to `CC#CC(=O)N1C[C@H](OC)[C@@H](n2cc(-c3ccc(Oc4ccccc4F)cc3)c3c(N)n[nH]c(=O)c32)C1` [Example 98, 4-amino-1-((3S,4S)-1-(but-2-ynoyl)-4-methoxypyrrolidin-3-yl)-3-(4-(2-fluorophenoxy)phenyl)-1H-pyrrolo[2,3-d]pyridazin-7(6H)-one], for which the half-inhibitory concentration (IC50) at Btk was in the range of 10 to 1000 nM.
For the molecule `CN(C)CC#CC(=O)N1CC[C@@H](n2cc(-c3ccc(Oc4ccccc4F)cc3)c3c(N)n[nH]c(=O)c32)C1` [Example 99, (R)-4-amino-1-(1-(4-(dimethylamino)but-2-ynoyl)pyrrolidin-3-yl)-3-(4-(2-fluorophenoxy)phenyl)-1H-pyrrolo[2,3-d]pyridazin-7(6H)-one], the half-maximal inhibitory concentration (IC50) at Btk is at most 10 nM.
The same measure, in the same setting: then `CC#CC(=O)NC1CCC(n2cc(-c3ccc(Oc4ccccc4F)cc3)c3c(N)n[nH]c(=O)c32)C1` (centres unmarked) [Example 100, N-(3-(4-amino-3-(4-(2-fluorophenoxy)phenyl)-7-oxo-6,7-dihydro-1H-pyrrolo[2,3-d]pyridazin-1-yl)cyclopentyl)but-2-ynamide], with 10 to 1000 nM; and `CC#CC(=O)N1CC[C@H](n2cc(-c3ccc(Oc4ccccc4F)cc3)c3c(N)n[nH]c(=O)c32)C1` [Example 101, (S)-4-amino-1-(1-(but-2-ynoyl)pyrrolidin-3-yl)-3-(4-(2-fluorophenoxy)phenyl)-1H-pyrrolo[2,3-d]pyridazin-7(6H)-one], with 1000 to 100000 nM; and `CC#CC(=O)N[C@H]1CC[C@@H](n2cc(-c3ccc(Oc4ccccc4F)cc3)c3c(N)n[nH]c(=O)c32)CC1` [Example 102, N-((1s,4s)-4-(4-amino-3-(4-(2-fluorophenoxy)phenyl)-7-oxo-6,7-dihydro-1H-pyrrolo[2,3-d]pyridazin-1-yl)cyclohexyl)but-2-ynamide], with 10 to 1000 nM.
The same measure, in the same setting: then `C=CC(=O)N[C@H]1CC[C@@H](n2cc(-c3ccc(Oc4ccccc4F)cc3)c3c(N)n[nH]c(=O)c32)CC1` [Example 104, N-((1s,4s)-4-(4-amino-3-(4-(2-fluorophenoxy)phenyl)-7-oxo-6,7-dihydro-1H-pyrrolo[2,3-d]pyridazin-1-yl)cyclohexyl)acrylamide], with 10 to 1000 nM; and `C=CC(=O)N[C@H]1CC[C@H](n2cc(-c3ccc(Oc4ccccc4F)cc3)c3c(N)n[nH]c(=O)c32)CC1` [Example 105, N-((1r,4r)-4-(4-amino-3-(4-(2-fluorophenoxy)phenyl)-7-oxo-6,7-dihydro-1H-pyrrolo[2,3-d]pyridazin-1-yl)cyclohexyl)acrylamide], with 10 to 1000 nM.
On the same count and under the same terms, the same measure for `C=CC(=O)N1CC[C@@H](n2cc(-c3ccc(Oc4ccccc4F)cc3)c3c(N)n[nH]c(=O)c32)C1` [Example 106, (R)-1-(1-acryloylpyrrolidin-3-yl)-4-amino-3-(4-(2-fluorophenoxy)phenyl)-1H-pyrrolo[2,3-d]pyridazin-7(6H)-one]: 10 to 1000 nM; for `N#CN1CC[C@@H](n2cc(-c3ccc(Oc4ccccc4)cc3)c3c(N)n[nH]c(=O)c32)C1` [Example 107, (R)-3-(4-amino-7-oxo-3-(4-phenoxyphenyl)-6,7-dihydro-1H-pyrrolo[2,3-d]pyridazin-1-yl)pyrrolidine-1-carbonitrile]: at most 10 nM; for `N#CN1CCCC(n2cc(-c3ccc(Oc4ccccc4F)cc3)c3c(N)n[nH]c(=O)c32)C1` (centres unmarked) [Example 108, 3-(4-amino-3-(4-(2-fluorophenoxy)phenyl)-7-oxo-6,7-dihydro-1H-pyrrolo[2,3-d]pyridazin-1-yl)piperidine-1-carbonitrile]: at most 10 nM.
Consider `C=CC(=O)N1CCC[C@@H](n2nc(-c3ccc(Oc4ccccc4F)cc3)c3c(N)n[nH]c(=O)c32)C1` [Example 109, (R)-1-(1-acryloylpiperidin-3-yl)-4-amino-3-(4-(2-fluorophenoxy)phenyl)-1H-pyrazolo[3,4-d]pyridazin-7(6H)-one], for which the IC50 on Btk was in the range of 10 to 1000 nM.
Consider `C=CC(=O)N1CCC[C@@H](n2nc(-c3ccc(Oc4ccccc4)cc3)c3c(N)n[nH]c(=O)c32)C1` [Example 110, (R)-1-(1-acryloylpiperidin-3-yl)-4-amino-3-(4-phenoxyphenyl)-1H-pyrazolo[3,4-d]pyridazin-7(6H)-one], for which, at Btk, the IC50 lay in the range of 10 to 1000 nM.
Still for that read-out and setting: the same measure for `C=CC(=O)N1CCC[C@H](n2cc(-c3ccc(Oc4c(F)cccc4F)cc3)c3c(N)n[nH]c(=O)c32)C1` [Example 114, (S)-1-(1-acryloylpiperidin-3-yl)-4-amino-3-(4-(2,6-difluorophenoxy)phenyl)-1H-pyrrolo[2,3-d]pyridazin-7(6H)-one]: 10 to 1000 nM.
Still for that read-out and setting: then `CCC(=O)N1CCC[C@@H](n2cc(-c3ccc(Oc4c(F)cccc4F)cc3)c3c(N)n[nH]c(=O)c32)C1` [Example 115, (R)-4-amino-3-(4-(2,6-difluorophenoxy)phenyl)-1-(1-propionylpiperidin-3-yl)-1H-pyrrolo[2,3-d]pyridazin-7(6H)-one], with 10 to 1000 nM.
Still for that read-out and setting: then `C/C=C/C(=O)N1CCC[C@@H](n2cc(-c3ccc(Oc4c(F)cccc4F)cc3)c3c(N)n[nH]c(=O)c32)C1` [Example 116, 4-amino-3-[4-(2,6-difluorophenoxy)phenyl]-1-[(3R)-1-[(E)-but-2-enoyl]-3-piperidyl]-6H-pyrrolo[2,3-d]pyridazin-7-one], with 10 to 1000 nM; and `CC#CC(=O)N1CCC[C@@H](n2cc(-c3ccc(Oc4c(F)cccc4F)cc3)c3c(N)n[nH]c(=O)c32)C1` [Example 117, (R)-4-amino-1-(1-(but-2-ynoyl)piperidin-3-yl)-3-(4-(2,6-difluorophenoxy)phenyl)-1H-pyrrolo[2,3-d]pyridazin-7(6H)-one], with 10 to 1000 nM; and `CCCC(=O)N1CC[C@@H](n2cc(-c3ccc(Oc4c(F)cccc4F)cc3)c3c(N)n[nH]c(=O)c32)C1` [Example 118, (R)-4-amino-1-(1-butyrylpyrrolidin-3-yl)-3-(4-(2,6-difluorophenoxy)phenyl)-1H-pyrrolo[2,3-d]pyridazin-7(6H)-one], with 1000 to 100000 nM.
